In patent US11479770B2, “Use of p38 inhibitors to reduce expression of DUX4” (Fulcrum Therapeutics, Inc., priority 2017, dated 2022):

Assays:
Type in all cases: cell-based, human
[1] = tested on: active Caspase-3; experiment: Apoptosis by active Caspase-3 in FSHD myotubes; conditions: 1 μM; to level similar to healthy control line
Procedure: Briefly, cells were fixed in 4% paraformaldehyde and permeabilized in […] for 10 min at room temperature. Cells were permeabilized with PBST (1× PBS solution with 0.1% Triton X-100) before blocking with 10% Normal Donkey Serum or 3% BSA (NDS) in PBST. Cells were then incubated with appropriately diluted primary antibodies in PBST with 5% NDS for 1 hours at room temperature or 12 hours at 4° C., washed with PBST for 3 times at room temperature, and then incubated with desired secondary antibodies in TBST with 5% NDS and DAPI to counterstain the nuclei. DUX4 was detected by immunocytochemistry using the E5-5 antibody in differentiated FSHD myotubes. Activated Caspase-3 was detected using a commercially available antibody (https://www.cellsignal.com/products/primary-antibodies/cleaved-caspase-3-asp175-antibody/9661).
Apoptosis was measured by active Caspase-3 levels in FSHD myotubes in vitro as described in Materials and Methods. Apoptosis was detected in a sporadic manner in a subset of myotubes in culture as shown by the white circles and magnified region in FIG. 9A. Active Caspase-3 signal was quantified in FSHD myotubes that had been treated with FTX-1821 at different concentrations (FIG. 9B). […] No change in active Caspase-3 signal was observed following DMSO treatment. […]

[2] = tested on: MBD3L2 mRNA (DUX4 downstream gene); experiment: MBD3L2 mRNA expression (qPCR) in FSHD myotubes
Procedure: (§1) On day 0, the media was changed to differentiation media. Plates were removed from the incubator and the growth medium was aspirated, plates were washed once with PBS, 100 μL, for 96-wells and 1 mL for a 6-well plate, 100 μL, or 2 mL of differentiation medium was added per well, 96- or 6-well respectively. Antisense oligonucleotides or drug were added at the desired concentration, and the plates were put back in the incubator and incubated for 3-4 days.
(§2) Cells were removed from the incubator and media aspirated. Cells were quickly lysed following one of the following protocols: for lysis in 96-well plates, direct lysis and one-step RT-Preamp qPCR was performed according to the protocol described below. For each 96-well, a mix containing: 19.5 μL Roche Realtime Ready lysis buffer, 0.25 μL RNAse inhibitor, 0.25 μL DNAseI (from Thermo not the included one in the kit) was prepared. 20 μL of the mix was added to each well, mixed 5 times, and incubated 5 minutes at RT or alternatively shaken vigorously for 15 minutes. Lysis was observed under the microscope. Samples were frozen −80° C. at least for 15 minutes.
1-step RT-Preamplification was used for detection of DUX4 downstream genes, i.e., MBD3L2, ZSCAN4, LEUTX, TRIM43, KHDC1L, and POL2RA-VIC was used as endogenous control. Per 10 μL reaction, the reaction mix included: 2.25 μL of RNA (1:10 dilution lysate), 5 μL of Taqman Pre-Amp Master Mix (2×), 0.25 μL of RT enzyme mix (40×), 2.5 μL of Taqman probe set (0.2×)*. * For pooling the TaqMan Assays, equal volumes of each 20× TaqMan® Gene Expression Assay were used, and up to 100 assays were combined. For example, to pool 50 TaqMan assays, 10 μL of each assay were combined in a microcentrifuge tube. The pooled TaqMan assays were diluted using 1× TE buffer so that each assay was at a final concentration of 0.2×. For the above example, 500 μL of 1× TE buffer was added to the pooled TaqMan assays for a total final volume of 1 mL. The QuantStudio7 protocol was used at 48° C. 15 min, 95° C. 10 min, 10 cycles: 95° C. 15 sec, 60° C. 4 min, and 4° C. infinite Samples were then diluted to 50 μL and continued with the qPCR step. Per 10 μL reaction, the reaction mix included: 2 μL of Preamp dilution, 5 μL of Fast Advanced Taqman Master Mix (2×), 0.5 μL of Taqman probe set (20×), and 2.5 μL of H2O. When multiplexing, the volume was adjusted to 10 μL total. The following program was run on the QuantStudio7: 50° C. for 2 min, 95° C. for 30 sec, 40×, 95° C. for 5 sec, 60° C. for 30 sec, and plates were read as per the manufacturers specifications (Thermo).
(§3) Wild type myotubes and mature patient-derived FSHD myotubes that express DUX4 protein were treated with DMSO vehicle control or multiple concentrations of various p38α/β inhibitors with different ranges of isoform and kinome selectivity, including SB239063 (FIG. 4A), VX-702 (FIG. 4B), Pamapimod (FIG. 4C), and TAK-715 (FIG. 4D). After treatment, the control and treated cells were processed for realtime PCR quantification of MBD3L2 mRNA (DUX4 downstream gene) and myogenin (MYOG) mRNA (control) expression.

[3] = tested on: myogenin (MYOG) mRNA; experiment: MYOG mRNA expression (qPCR) in FSHD myotubes; conditions: multiple concentrations
Procedure: as §1, §2
For qPCR, cell lysate was diluted 1:10, and 2 μL was used for a 10 μL 1-step RT-qPCR reaction for detection of GAPDH, RPLPO, TBP, MYOG, FRG1, MYH3, ACTN2, etc. Per 10 μL reaction, the reaction mix included: 2 μL of RNA (1:10 dilution lysate), 5 μL of Fast Advanced Taqman Master Mix (2×), 0.25 μL of RT enzyme mix (40×), 0.5 μL of Taqman probe set (20×), and 2.25 μL of H2O. The following reaction protocol was run on the QuantStudio 7: 48° C. for 15 min, 50° C. for 2 min, 95° C. for 30 sec, 40×, 95° C. for 5 sec, 60° C. for 30 sec, after which the plates were read as specified by the manufacturer (Thermo).
as §3

[4] = tested on: ZSCAN4, TRIM43, MBD3L2, LEUTX, and KHDC1L; experiment: DUX4-regulated downstream gene expression (real time PCR) in FSHD myotubes; conditions: 1 μM ASO
Procedure: Wild type myotubes were treated with DMSO control vehicle, and mature patient-derived FSHD myotubes that express DUX4 protein were treated with DMSO vehicle control or 1 μM of a DUX4 sequence-directed antisense oligonucleotide (ASO; FTX-2) purchased from Exiqon. After treatment, the myotubes were lysed in 19.5 μL of Roche Real Time Ready Lysis Buffer, 0.25 μL of DNAse1 (Ambion, AM2222), 0.25 μL of Protector RNase Inhibitor (Roche, 3335402001), and the RNA was collected in an RNeasy Micro Kit Master Mix. Expression levels of DUX4-regulated downstream genes (ZSCAN4, TRIM43, MBD3L2, LEUTX, and KHDC1L) was determined by real time PCR (ThermoFisher Scientific, 4484262), ZSCAN4 Taqman Assay (ThermoFisher Scientific, Hs00537549_m1, FAM-MGB), MYOG Taqman Assay (ThermoFisher Scientific, Hs01072232_m1, JUN-QSY), RPLPO Taqman Assay (ThermoFisher Scientific, Hs99999902_m1), and/or LEUTX Taqman Assay (ThermoFisher Scientific, Hs00418470_m1). Ct values were extracted from QuantStudio Realtime PCR software, and Genedata was used to calculate relative levels of expression using POLR2A as a housekeeping gene.

[5] = tested on: DUX4-fl mRNA; experiment: DUX4 / DUX4-fl mRNA expression in FSHD myotubes
Procedure: cDNA preparation. 10 μL reactions included 1 μL of RNA (1 μg), 0.5 μL of Oligo dT, 0.5 μL of 10 mM dNTPs, and 4.5 μL of H2O. Reaction samples were incubated at 65° C. for 2 min and quickly moved to ice and held at least 1 min before adding the enzyme mix, which included 2 μL of 5× First strand Buffer, 0.5 μL of 0.1M DTT, 0.5 μL of RNAse inhibitor, 0.5 μL of SSIV RT. The samples were incubated at 55° C. for 20 min and 80° C. for 10 min, followed by cool down to 4° C. […]
DUX4 qPCR with nested primers was performed in a 10 μL reaction containing 1 μL of DUX4 pre amplification DNA, 5 μL of 2× IQ SYBR Mix, 0.4 μL of 10 μM TJ38F, 0.4 μL of 10 μM TJ41R, and 3.2 μL H2O. […] 10 seconds, then the plates were read on QuantStudio7 as per manufactures instruction (Thermo). […]
Wild type myotubes were treated with DMSO control vehicle, and mature patient-derived FSHD myotubes that express DUX4 protein were treated with DMSO vehicle control or 1 μM of a DUX4 sequence-directed antisense oligonucleotide (ASO; FTX-2) purchased from Exiqon. After treatment, the myotubes were lysed in 19.5 μL of Roche Real Time Ready Lysis Buffer, 0.25 μL of DNAse1 (Ambion, AM2222), 0.25 μL of Protector RNase Inhibitor (Roche, 3335402001), and the RNA was collected in an RNeasy Micro Kit Master Mix. […]

## Cn1c(=O)c(Oc2ccc(F)cc2F)cc2cnc(NC(CCO)CCO)nc21 [FTX-839, Pamapimod]
[1]
  apoptosis (active caspase-3) across FSHD1 and FSHD2 lines: reduction
[2]; 1 μM, to levels similar to healthy control lines
  MBD3L2 mRNA in FSHD1 and FSHD2 primary patient myoblast lines: reduction
[2]; FSHD myotubes, 10, 100, and 1000 nM vs DMSO
  MBD3L2 mRNA levels normalized to POLR2A mRNA: dose-dependently reduced
[2]; FTCE-016, -020, -197, -196 myotubes, 1 μM, to levels similar to healthy controls
  MBD3L2 expression levels in four FSHD patient lines: reduced
[3]
  impact to MYOG mRNA expression: no impact

## COc1nccc(-c2c(-c3ccc(F)cc3)ncn2C2CCC(O)CC2)n1 (stereo not drawn) [SB239063]
[3]
  impact to MYOG mRNA expression: no impact

## CCc1nc(-c2cccc(C)c2)c(-c2ccnc(NC(=O)c3ccccc3)c2)s1 [TAK-715]
[3]
  impact to MYOG mRNA expression: no impact

## NC(=O)c1ccc(N(C(N)=O)c2c(F)cccc2F)nc1-c1ccc(F)cc1F [VX-702]
[3]
  impact to MYOG mRNA expression: no impact

## FTX-2: DUX4 sequence-directed antisense oligonucleotide purchased from Exiqon, CAGCGTCGGAAGGTGG (SEQ ID NO:18) (listed as DNA, chemistry not given here)
[4]
  expression of DUX4 downstream target genes ZSCAN4, TRIM43, MBD3L2, LEUTX, and KHDC1L vs DMSO: reduced
[5]; 1 μM ASO
  DUX4 expression vs DMSO vehicle control: reduced
[5]; different dilutions of the ASO
  DUX4 expression, different dilutions: dose dependent reduction
[2]; FSHD myotubes, different dilutions of the ASO
  MBD3L2 expression, different dilutions: dose dependent reduction
